Values of other authors as cited in US6777561B1, “Compounds” (AstraZeneca Canada Inc., priority 1998, dated 2004).

Columns and labels:
[1] = background statement on non-peptidic δ antagonists
δ receptor = conditions: background statement on non-peptidic δ antagonists

## Oc1ccc2c3c1O[C@H]1c4[nH]c5ccccc5c4C[C@@]4(O)[C@@H](C2)N(CC2CC2)CC[C@]314 [naltrindole]
[1]
  analgesic activity: no analgesic activity
δ receptor
  selectivity for the δ receptor vs. μ receptor binding: < 10 fold
